The record followed here is patent publication US9708325B2, “Sulfonimidoylpurinone compounds and derivatives for the treatment and prophylaxis of virus infection” (Hoffmann-La Roche Inc., priority 2015, dated 2017).

Data set [1] relates to Salmonella typhimurium tester strains (TA1535, TA97, TA98, TA100, and TA102). Nature of the data set: Ames microsuspension assay. The class given is cell-based. The settings on record: five strains, absence and presence of S9. The protocol: The Ames microsuspension assay examines if a compound causes DNA mutations. The method was based on a modified pre-incubation version described by Kado et al (see references: B. N. Ames, J. McCann, E. Yamasaki, Mutation Res. 1975, 31, 347-364 N.Y. Kado, D. Langley, and E. Eisenstadt, Mutation Res. 1983, 121, 25-32). Five Salmonella typhimurium tester strains (TA1535, TA97, TA98, TA100, and TA102) were treated with the test compound in absence and in presence of an exogenous metabolic activation system (S9). The bacteria were pre-incubated for 1 h, the pre-incubation volume is 210 μL (100 μL of overnight culture, 100 μL of S9 mix (10% S9) or 100 μL phosphate buffer, and 10 μL test compound solution). The overnight cultures were resuspended for the test in cold phosphate buffer. The S9 mix contains potassium chloride, magnesium chloride, sodium phosphate buffered saline, NADP^+ and glucose-6-phosphate. The test tubes are incubated and shaken for 60 minutes at 37° C. 2.2 mL soft agar supplemented with L-histidine and biotin was added afterwards and the content of the tubes were mixed and poured on Vogel-Bonner minimal agar plates.
Three replicate plates for the test compound and negative control or two replicate plates for the positive controls were incubated at 37° C., upside down, for 2 days. Colonies were counted electronically using an automatic image analysis system after having inspected the background lawn for signs of toxicity.
S9 is an in vitro metabolic system which is obtained from liver homogenates by centrifuging them at 9000 g for 20 minutes. It contains CYP450 isoforms, phase-II metabolic enzymes, etc. In the Ames microsuspension assay test, S9 is used to assess mutagenicity of compounds, some of which require metabolic activation to become mutagenic.
Criteria of the Ames microsuspension assay: a positive result is defined as a reproducible, dose-related increase in the number of revertant colonies in at least one of the strains. For TA1535 and TA98, the positive threshold is a 2-fold increase over control. For TA97, TA100 and TA102, the threshold is a 1.5-fold increase.

Data set [2] can be described thus: Metabolic stability in human liver microsomes. The settings on record: 1 μM test compound, 0.5 mg/mL microsomal protein; 6.15 mL/min/kg is the limitation of assay sensitivity. A digest of the protocol:
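Test compound at 1 μM with 0.5 mg/mL microsomal protein in 100 mM potassium phosphate, pH 7.4, 37 °C, 10 min preincubation, reaction started with NADPH regenerating system. Sampled at 0, 3, 6, 9, 15 and 30 min, quenched with cold ACN, remaining parent by LC-MS/MS. No-NADPH controls at 0 and 30 min.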
For orientation: Microsomes from liver hold many membrane-bound enzymes, among them those of drug oxidation.

For `CCCS(=N)(=O)c1nc(N)c2[nH]c(=O)n(Cc3ccc(Cl)cc3)c2n1` (stereo not drawn) [Example 9, 6-Amino-9-[(4-chlorophenyl)methyl]-2-(propylsulfonimidoyl)-7H-purin-8-one], the Ames result in data set [1] was “negative”.
Regarding `CCS(=N)(=O)c1nc(N)c2[nH]c(=O)n(Cc3ccc(C)cc3)c2n1` (single isomer, unassigned) [Example 71-A, 6-Amino-2-(ethylsulfonimidoyl)-9-(p-tolylmethyl)-7H-purin-8-one], the Ames result in data set [1] is “negative”. For the same compound, the “Human Liver Microsome Clearance” value in data set [2] was below 6.15 mL/min/kg.
For `CCCS(=N)(=O)c1nc(N)c2[nH]c(=O)n(Cc3ccccc3)c2n1` (single isomer, unassigned) [Example 4-B, 6-Amino-9-benzyl-2-(propylsulfonimidoyl)-7H-purin-8-one], in data set [1], the Ames result was “negative”.
Consider `CCCS(=N)(=O)c1nc(N)c2[nH]c(=O)n(Cc3ccccc3)c2n1` (single isomer, unassigned) [Example 4-A, 6-Amino-9-benzyl-2-(propylsulfonimidoyl)-7H-purin-8-one], for which the Ames result in data set [1] is reported as “negative”.
As for `CCCS(=N)(=O)c1nc(N)c2[nH]c(=O)n(Cc3ccccc3)c2n1` (stereo not drawn) [Example 4, 6-Amino-9-benzyl-2-(propylsulfonimidoyl)-7H-purin-8-one], the Ames result in data set [1] is given as “negative”. For the same compound, in data set [2], the “Human Liver Microsome Clearance” value is listed as below 6.15 mL/min/kg.
Consider `CCS(=N)(=O)c1nc(N)c2[nH]c(=O)n(Cc3ccc(Cl)cc3)c2n1` (single isomer, unassigned) [Example 70-B, 6-Amino-9-[(4-chlorophenyl)methyl]-2-(ethylsulfonimidoyl)-7H-purin-8-one], for which the Ames result in data set [1] is reported as “negative”. Moreover, in data set [2], the “Human Liver Microsome Clearance” value is on record as below 6.15 mL/min/kg.
For the compound `CCCS(=N)(=O)c1nc(N)c2[nH]c(=O)n(Cc3ccc(C)nc3)c2n1` (stereo not drawn) [Example 34, 6-Amino-9-[(6-methyl-3-pyridyl)methyl]-2-(propylsulfonimidoyl)-7H-purin-8-one], in data set [1], the Ames result is “negative”. In addition, in data set [2], the “Human Liver Microsome Clearance” value was below 6.15 mL/min/kg.
For the compound `CCCS(=N)(=O)c1nc(N)c2[nH]c(=O)n(Cc3ccc(F)c(F)c3)c2n1` (stereo not drawn) [Example 27, 6-Amino-9-(3,4-difluorophenylmethyl)-2-(propylsulfonimidoyl)-7H-purin-8-one], the Ames result in data set [1] was “negative”.
As for `CCCS(=N)(=O)c1nc(N)c2[nH]c(=O)n(Cc3ccc(C)cc3)c2n1` (single isomer, unassigned) [Example 29-A, 6-Amino-2-(propylsulfonimidoyl)-9-(p-tolylmethyl)-7H-purin-8-one], in data set [1], the Ames result is “negative”. Further, the “Human Liver Microsome Clearance” value in data set [2] is listed as below 6.15 mL/min/kg.
As for `CCS(=N)(=O)c1nc(N)c2[nH]c(=O)n(Cc3ccc(Cl)cc3)c2n1` (single isomer, unassigned) [Example 70-A, 6-Amino-9-[(4-chlorophenyl)methyl]-2-(ethylsulfonimidoyl)-7H-purin-8-one], in data set [1], the Ames result was “negative”. In data set [2], the “Human Liver Microsome Clearance” value is listed as below 6.15 mL/min/kg.
As for `CCCS(=N)(=O)c1nc(N)c2[nH]c(=O)n(Cc3ccc(C(=O)O)cc3)c2n1` (stereo not drawn) [Example 39, 4-[[6-Amino-8-oxo-2-(propylsulfonimidoyl)-7H-purin-9-yl]methyl]benzoic acid], in data set [1], the Ames result is reported as “negative”. The “Human Liver Microsome Clearance” value in data set [2] is recorded as below 6.15 mL/min/kg.
